In ChEMBL document CHEMBL2092589, “Liver-stage malaria parasites vulnerable to diverse chemical scaffolds” (Proc Natl Acad Sci U S A, 2012):
Structures can show the parent of a compound that is named as a salt.

Legend:
[1] = (§1) HARVARD: Cytotoxicity in HepG2 cell line; conditions: human
[2] = test system: Plasmodium falciparum; assay: HARVARD: Inhibition of blood stage Plasmodium falciparum 3D7 infection; format: functional, organism-based
[3] = test system: Plasmodium berghei; assay: HARVARD: Inhibition of liver stage Plasmodium berghei infection in HepG2 cells; format: functional, organism-based, ANKA
[4] = test system: Plasmodium falciparum; assay: HARVARD: Inhibition of blood stage Plasmodium falciparum Dd2 infection; format: functional, organism-based
[5] = test system: HepG2; assay: as §1; conditions: human, HepG2 cells
[6] = Plasmodium berghei, ANKA, HepG2

Compound	IC50 [3, 6] [nM]	IC50 ([4]; Plasmodium falciparum, Dd2) [nM]	IC50 ([1]; HepG2 cells) [nM]	other results
Nc1ccc2ncnc(NCCc3ccc(Oc4ccccc4)cc3)c2c1	12	1170	59000	
CCCCCC[C@H]1C(=O)O[C@H](C)[C@H](NC(=O)c2cccc(NC=O)c2O)C(=O)O[C@@H](C)[C@@H]1OC(=O)CC(C)C [ANTIMYCIN A]	2.3		> 100000	
COc1ccc(CCN2CCC(Nc3nc4ccccc4n3Cc3ccc(F)cc3)CC2)cc1 [ASTEMIZOLE]			12000	
O=C1C(O)=C([C@H]2CC[C@H](c3ccc(Cl)cc3)CC2)C(=O)c2ccccc21 [ATOVAQUONE]	0.3		> 10000	
CN1CCC[C@@H]1CCO[C@](C)(c1ccccc1)c1ccc(Cl)cc1 [CLEMASTINE FUMARATE]	951	456		IC50 ([1]; hepg2): > 50000 nM; IC50 ([2]; Plasmodium falciparum, 3D7): 658 nM
C[C@@H]1C[C@@H]([C@H](O)CC2CC(=O)NC(=O)C2)C(=O)[C@@H](C)C1 [CYCLOHEXIMIDE]	47		> 100000	
C/C=C/C[C@@H](C)[C@@H](O)[C@H]1C(=O)N[C@@H](CC)C(=O)N(C)CC(=O)N(C)[C@@H](CC(C)C)C(=O)N[C@@H](C(C)C)C(=O)N(C)[C@@H](CC(C)C)C(=O)N[C@@H](C)C(=O)N[C@H](C)C(=O)N(C)[C@@H](CC(C)C)C(=O)N(C)[C@@H](CC(C)C)C(=O)N(C)[C@@H](C(C)C)C(=O)N1C [CYCLOSPORINE]	1.65			IC50 ([2]; Plasmodium falciparum, 3D7): 138 nM
COc1cccc2c1C(=O)c1c(O)c3c(c(O)c1C2=O)C[C@@](O)(C(C)=O)C[C@@H]3O[C@H]1C[C@H](N)[C@H](O)[C@H](C)O1 [DAUNORUBICIN]	2990	155	9120	IC50 ([2]; Plasmodium falciparum, 3D7): 340 nM
CCCCCCCCCCOc1cc2c(O)c(C(=O)OCC)cnc2cc1OCC [DECOQUINATE]	5.4		> 100000	
CC[C@H]1CN2CCc3cc(OC)c(OC)cc3[C@@H]2C[C@@H]1C[C@H]1NCCc2cc(OC)c(OC)cc21 [EMETINE HYDROCHLORIDE]	80	18	10000	
CC(=O)O[C@@H]1C[C@H]2C(C)(C)C(=O)C=C[C@]2(C)[C@H]2CC[C@@]3(C)[C@H](c4ccoc4)OC(=O)[C@H]4O[C@]43[C@@]21C [GEDUNIN]	760		> 100000	
CC(=O)[C@]1(O)Cc2c(O)c3c(c(O)c2[C@@H](O[C@H]2C[C@H](N)[C@H](O)[C@H](C)O2)C1)C(=O)c1ccccc1C3=O [IDARUBICIN]	6620	> 5000	12300	IC50 ([2]; Plasmodium falciparum, 3D7): > 5000 nM
O=C(c1ccc(F)cc1)C1CCN(CCn2c(=O)[nH]c3ccccc3c2=O)CC1 [KETANSERIN TARTRATE]	1340	> 5000	> 100000	
CC[C@@H](C(=O)[C@@H](C)[C@@H](O)[C@H](C)CCc1ccc(C)c(O)c1C(=O)O)[C@H]1O[C@](CC)([C@H]2CC[C@](O)(CC)[C@H](C)O2)C[C@@H]1C [LASALOCID A SODIUM]	11		> 100000	
CC[C@@]1([C@@H]2O[C@@H]([C@H]3O[C@@](O)(CO)[C@H](C)C[C@@H]3C)C[C@@H]2C)CC[C@H]([C@]2(C)CC[C@]3(C[C@H](O)[C@@H](C)[C@@H]([C@@H](C)[C@@H](OC)[C@H](C)C(=O)O)O3)O2)O1 [MONENSIN SODIUM]			> 100000	
CC[C@@]1([C@H]2O[C@H]([C@H]3O[C@@](O)(CO)[C@H](C)C[C@@H]3C)C[C@H]2C)CC[C@H]([C@@]2(C)CC[C@]3(C[C@H](O)[C@@H](C)[C@@H]([C@H](C)[C@H](OC)[C@@H](C)C(=O)O)O3)O2)O1 [MONENSIN SODIUM]	0.6			
COc1c(C)c2c(c(O)c1C/C=C(\C)CCC(=O)O)C(=O)OC2 [MYCOPHENOLIC ACID]	1000	> 5000	> 100000	
CCCCCCCCCc1ccc(OCCOCCOCCOCCOCCOCCOCCOCCOCCO)cc1 [NONOXYNOL 9]	2310	> 5000	61000	
CC[C@@H]1C=CC=CC[C@H](C)[C@@H](O)[C@@H](C)C(=O)[C@H](C)[C@@H](O)[C@H](C)C(=O)[C@H](C)[C@@H](O)[C@H](C)C=CC(=O)O[C@H]2[C@@H](C)[C@@H](CC1)O[C@@]1(CC[C@@H](C)[C@@H](C[C@H](C)O)O1)[C@@H]2C [OLIGOMYCIN C]	0.5	111	15000	
COc1ccc2[nH]c([S+]([O-])Cc3ncc(C)c(OC)c3C)nc2c1 (configuration not stated) [OMEPRAZOLE]	680	> 50000	> 10000	IC50 ([2]; Plasmodium falciparum, 3D7): > 50000 nM
CO[C@H](C(=O)[C@@H](O)[C@@H](C)O)[C@@H]1Cc2cc3cc(O[C@H]4C[C@@H](O[C@H]5C[C@@H](O)[C@H](O)[C@@H](C)O5)[C@H](O)[C@@H](C)O4)c(C)c(O)c3c(O)c2C(=O)[C@H]1O[C@H]1C[C@@H](O[C@H]2C[C@@H](O[C@H]3C[C@](C)(O)[C@H](O)[C@@H](C)O3)[C@@H](O)[C@@H](C)O2)[C@H](O)[C@@H](C)O1 [PLICAMYCIN]			> 10000	
CCCC(C(=O)OCCN(CC)CC)(c1ccccc1)c1ccccc1 [PROADIFEN HYDROCHLORIDE]	2780	722	57000	
CCc1nc(N)nc(N)c1-c1ccc(Cl)cc1 [PYRIMETHAMINE]	4.7		> 10000	
CC[C@@H](C(=O)[C@@H](C)[C@@H](O)[C@H](C)[C@@H]1O[C@@H]([C@@H](CC)C(=O)O)CC[C@@H]1C)[C@H]1O[C@]2(C=C[C@@H](O)[C@]3(CC[C@@](C)([C@H]4CC[C@](O)(CC)[C@H](C)O4)O3)O2)[C@H](C)C[C@@H]1C [SALINOMYCIN SODIUM]	2		58000	
CCCOc1ccccc1-c1nc2nn[nH]c2c(=O)[nH]1 [ZAPRINAST]	7790	19300	> 10000	IC50 ([2]; Plasmodium falciparum, 3D7): > 50000 nM
AURANOFIN				IC50 [5]: 5600 nM; IC50 [2]: 343 nM; IC50 ([3]; hepg2): 108 nM; IC50 [4]: 316 nM

Continued, in another order:

IC50 [3, 6] [nM]	IC50 ([4]; Plasmodium falciparum, Dd2) [nM]	Compound	IC50 ([1]; HepG2 cells) [nM]	other results
25	> 5000	CCCc1nc2c(C)cc(-c3nc4ccccc4n3C)cc2n1Cc1ccc(-c2ccccc2C(=O)O)cc1	> 10000	IC50 ([2]; Plasmodium falciparum, 3D7): > 5000 nM
472	258	Nc1nc(Nc2ccc(S(N)(=O)=O)cc2)nn1C(=S)Nc1c(F)cccc1F	> 50000	
1050		Cc1cc(C2CCCCC2)n(O)c(=O)c1 [CICLOPIROX OLAMINE]	> 100000	
219		CCN(CC)CCOc1ccc(C(=C(Cl)c2ccccc2)c2ccccc2)cc1 [CLOMIPHENE]	11000	
1710	134	Cc1cc(N)c2ccccc2[n+]1CCCCCCCCCC[n+]1c(C)cc(N)c2ccccc21 [DEQUALINIUM CHLORIDE]	> 100000	
886	58	COc1cccc2c1C(=O)c1c(O)c3c(c(O)c1C2=O)C[C@@](O)(C(=O)CO)C[C@@H]3O[C@H]1C[C@H](N)[C@H](O)[C@H](C)O1 [DOXORUBICIN]	11100	
291	> 50000	COc1ccc2nc([S@@+]([O-])Cc3ncc(C)c(OC)c3C)[nH]c2c1 [ESOMEPRAZOLE POTASSIUM]	> 10000	IC50 ([2]; Plasmodium falciparum, 3D7): > 50000 nM
833	12.5	CO[C@H](C(=O)[C@@H](O)[C@@H](C)O)[C@@H]1Cc2cc3cc(O[C@H]4C[C@@H](O[C@@H]5C[C@@H](O)[C@H](O)[C@@H](C)O5)[C@H](O)[C@@H](C)O4)c(C)c(O)c3c(O)c2C(=O)[C@H]1O[C@H]1C[C@@H](O[C@@H]2C[C@@H](O)[C@@H](O[C@@H]3C[C@](C)(O)[C@H](O)[C@@H](C)O3)[C@@H](C)O2)[C@H](O)[C@@H](C)O1 [PLICAMYCIN]		IC50 ([2]; Plasmodium falciparum, 3D7): 15 nM
7400	794	COc1cc(NC(C)CCCN)c2ncccc2c1 (configuration not stated) [PRIMAQUINE PHOSPHATE]	> 100000	
1370	> 5000	CC(C)=CC[C@@H](O)C1=CC(=O)c2c(O)ccc(O)c2C1=O [SHIKONIN]	28100	IC50 ([2]; Plasmodium falciparum, 3D7): > 5000 nM
224	> 5000	COc1ccc2[nH]c([S+]([O-])Cc3ncc(C)c(OC)c3C)nc2n1 (configuration not stated) [TENATOPRAZOLE]	> 10000	IC50 ([2]; Plasmodium falciparum, 3D7): > 5000 nM
